Assay results as given in patent US10202378B2, “Therapeutic compounds and uses thereof” (GENENTECH, INC., priority 2015, dated 2019).

Key:
TAF1-BD2 = TAF1-BD2 (Homo sapiens, UniProt P21675); assay: TAF1-BD2 TR-FRET Binding Assay; conditions: read-out: TAF1-BD2 HTRF IC50
TAF1-BD1 = TAF1-BD1 (Homo sapiens, UniProt P21675); assay: TAF1-BD1 TR-FRET Binding Assay; conditions: read-out: TAF1-BD1 HTRF IC50

IC50 (TAF1-BD2) [µM]	IC50 (TAF1-BD1) [µM]	Compound
0.0273	0.189	CCOC(=O)c1c(C)[nH]c2c(=O)n(C)cc(C#CC(O)(c3cccc(-c4cccnc4)c3)C(F)(F)F)c12 (centres unmarked) [Example 100, ethyl 2,6-dimethyl-7-oxo-4-[4,4,4-trifluoro-3-hydroxy-3-[3-(3-pyridyl)phenyl]but-1-ynyl]-1H-pyrrolo[2,3-c]pyridine-3-carboxylate]
0.0627	0.327	Cc1nnc(-c2c(C)[nH]c3c(=O)n(C)cc(C#CC(O)(c4ccccc4)C(F)(F)F)c23)o1 (centres unmarked) [Example 184, 2,6-dimethyl-3-(5-methyl-1,3,4-oxadiazol-2-yl)-4-(4,4,4-trifluoro-3-hydroxy-3-phenyl-but-1-ynyl)-1H-pyrrolo[2,3-c]pyridin-7-one]
0.0355	0.257	CCOC(=O)c1c(C)[nH]c2c(=O)n(C)cc(C#CC(O)(c3cccc(CO)c3)C(F)(F)F)c12 (centres unmarked) [Example 43, ethyl 2,6-dimethyl-7-oxo-4-[4,4,4-trifluoro-3-hydroxy-3-[3-(hydroxymethyl)phenyl]but-1-ynyl]-1H-pyrrolo[2,3-c]pyridine-3-carboxylate]
0.0277	0.105	Cc1[nH]c2c(=O)n(C)cc(C#CC(C)(C)O)c2c1C(=O)OCc1ccccc1C(F)(F)F [Example 116, [2-(trifluoromethyl)phenyl]methyl 4-(3-hydroxy-3-methyl-but-1-ynyl)-2,6-dimethyl-7-oxo-1H-pyrrolo[2,3-c]pyridine-3-carboxylate]
0.0502	0.598	Cc1[nH]c2c(=O)n(C)cc(C#CC(O)(c3ccccc3)C(F)(F)F)c2c1-c1nnco1 (centres unmarked) [Example 183, 2,6-dimethyl-3-(1,3,4-oxadiazol-2-yl)-4-(4,4,4-trifluoro-3-hydroxy-3-phenyl-but-1-ynyl)-1H-pyrrolo[2,3-c]pyridin-7-one]
0.373	0.848	CCOC(=O)c1c(C)[nH]c2c(=O)n(C)cc(C#CC(C)(C)OCc3ccccc3)c12 [Example 25, ethyl 4-(3-benzyloxy-3-methyl-but-1-ynyl)-2,6-dimethyl-7-oxo-1H-pyrrolo[2,3-c]pyridine-3-carboxylate]
0.0351	0.221	CCC(C)(C)OC(=O)c1c(C)[nH]c2c(=O)n(C)cc(C#CC(C)(C)O)c12 [Example 151, 1,1-dimethylpropyl 4-(3-hydroxy-3-methyl-but-1-ynyl)-2,6-dimethyl-7-oxo-1H-pyrrolo[2,3-c]pyridine-3-carboxylate]
0.0712	0.233	Cc1cc([C@](C)(O)C#Cc2cn(C)c(=O)c3[nH]c(C)c(C(=O)OC(C)C)c23)no1 [Example 157, isopropyl 4-[(3R)-3-hydroxy-3-(5-methylisoxazol-3-yl)but-1-ynyl]-2,6-dimethyl-7-oxo-1H-pyrrolo[2,3-c]pyridine-3-carboxylate]
0.608	4.33	CCOC(=O)c1c(C)[nH]c2c(=O)n(C)cc(C#CC(O)(c3cccc(-c4ccccc4OC)c3)C(F)(F)F)c12 (centres unmarked) [Example 101, ethyl 2,6-dimethyl-7-oxo-4-[4,4,4-trifluoro-3-hydroxy-3-[3-(2-methoxyphenyl)phenyl]but-1-ynyl]-1H-pyrrolo[2,3-c]pyridine-3-carboxylate]
0.23	1.09	CCOC(=O)c1c(C)[nH]c2c(=O)n(C)cc(C#CC(C)(O)C3CC3)c12 (single isomer, unassigned) [Example 92b, ethyl 4-(3-cyclopropyl-3-hydroxy-but-1-ynyl)-2,6-dimethyl-7-oxo-1H-pyrrolo[2,3-c]pyridine-3-carboxylate]
0.0507	0.543	Cc1nnc(-c2c(C)[nH]c3c(=O)n(C)cc(C#CC(C)(C)O)c23)o1 [Example 177, 4-(3-hydroxy-3-methyl-but-1-ynyl)-2,6-dimethyl-3-(5-methyl-1,3,4-oxadiazol-2-yl)-1H-pyrrolo[2,3-c]pyridin-7-one]
0.0471	0.249	Cc1[nH]c2c(=O)n(C)cc(C#CC(O)(c3ccccc3)C(F)(F)F)c2c1-c1nnc(C2CC2)o1 (centres unmarked) [Example 180, 3-(5-cyclopropyl-1,3,4-oxadiazol-2-yl)-2,6-dimethyl-4-(4,4,4-trifluoro-3-hydroxy-3-phenyl-but-1-ynyl)-1H-pyrrolo[2,3-c]pyridin-7-one]
0.0544	0.318	Cc1[nH]c2c(=O)n(C)cc(C#CC(C)(O)c3ccccc3)c2c1C(=O)OC(C)(C)C (centres unmarked) [Example 162, tert-butyl 4-(3-hydroxy-3-phenyl-but-1-ynyl)-2,6-dimethyl-7-oxo-1H-pyrrolo[2,3-c]pyridine-3-carboxylate]
